US7189680B2, “5-halo-6-aryl[1,2,4]triazolo[1,5-a]pyrimidin-7-amines” (Bayer Cropscience AG, priority 2001, dated 2007)
Like-named read-outs stand apart in the source and are kept apart here.

Assay: logP determination by HPLC (EEC directive 79/831 Annex V. A8)
Assay type: physicochemical
Method: *) The logP values were determined in accordance with EEC directive 79/831 Annex V. A8 by HPLC (gradient method, acetonitrile/0.1% aqueous phosphoric acid)

[1] = HPLC, preparation examples, read-out: HPLC: logP
[2] = HPLC gradient method, acetonitrile/0.1% aqueous phosphoric acid, Table 1
[3] = HPLC gradient method, acetonitrile/0.1% aqueous phosphoric acid, Table 1, read-out: logP*

SMILES | logP* [2] | other results
CC(C)(C)ONc1c(-c2c(F)cccc2F)c(Cl)nc2ncnn12 [Example 2, 7-(tert-butoxyamino)-5-chloro-6-(2,6-difluorophenyl)[1,2,4)triazolo[1,5-a]pyrimidine] |  | chromatographic logP [1]: 2.59
C[C@H](N(SC(F)(Cl)Cl)c1c(-c2c(F)cc(F)cc2F)c(Cl)nc2ncnn12)C(F)(F)F [Example 3, 5-chloro-7-{{[dichloro(fluoro)methyl]sulphanyl}[(1S)-2,2,2-trifluoro-1-methylethyl]amino}-6-(2,4,6-trifluorophenyl)[1,2,4]triazolo[1,5-a]pyrimidine] |  | chromatographic logP [1]: 4.74
CC(C)CONc1c(-c2c(F)cccc2F)c(Cl)nc2ncnn12 [Example 8] | 2.78 | 
Fc1cc(F)c(-c2c(Cl)nc3ncnn3c2NOCc2nc(-c3ccccc3)cs2)c(F)c1 [Example 9] | 3.21 | 
Fc1cc(F)c(-c2c(Cl)nc3ncnn3c2NOCc2ccc(C(F)(F)F)cc2)c(F)c1 [Example 10] | 3.38 | 
Fc1cc(F)c(-c2c(Cl)nc3ncnn3c2NOCc2ccc(OC(F)(F)F)cc2)c(F)c1 [Example 11] | 3.54 | 
Fc1cc(F)c(-c2c(Cl)nc3ncnn3c2NOCc2ccccc2)c(F)c1 [Example 12] | 2.92 | 
Cc1ccc(CONc2c(-c3c(F)cc(F)cc3F)c(Cl)nc3ncnn23)cc1 [Example 13] | 3.25 | 
Fc1cc(F)c(-c2c(Cl)nc3ncnn3c2NOC2CCCC2)c(F)c1 [Example 14] | 2.94 | 
Fc1cc(F)c(-c2c(Cl)nc3ncnn3c2NOCOc2ccc(Cl)nc2)c(F)c1 [Example 15] | 2.43 | 
CON(C)c1c(-c2c(F)cc(F)cc2F)c(Cl)nc2ncnn12 [Example 16] | 2.63 | 
CCN(N)c1c(-c2c(F)cc(F)cc2F)c(Cl)nc2ncnn12 [Example 17] | 2.27 | 
CNN(C)c1c(-c2c(F)cc(F)cc2F)c(Cl)nc2ncnn12 [Example 18] | 2.33 | 
Fc1cc(F)c(-c2c(Cl)nc3ncnn3c2NNCC(F)(F)F)c(F)c1 [Example 19] | 2.47 | 
CCCN(N)c1c(-c2c(F)cc(F)cc2F)c(Cl)nc2ncnn12 [Example 20] | 2.58 | 
CC(C)(C)NNc1c(-c2c(F)cc(F)cc2F)c(Cl)nc2ncnn12 [Example 21] | 2.86 | 
NN(CC1CCCCC1)c1c(-c2c(F)cc(F)cc2F)c(Cl)nc2ncnn12 [Example 22] |  | chromatographic logP [3]: 3.67
N#CCCNNc1c(-c2c(F)cc(F)cc2F)c(Cl)nc2ncnn12 [Example 23] | 2.03 | 
C=CCNNc1c(-c2c(F)cc(F)cc2F)c(Cl)nc2ncnn12 [Example 24] |  | chromatographic logP [3]: 2.48
CC(NNc1c(-c2c(F)cc(F)cc2F)c(Cl)nc2ncnn12)C1CC1 (stereo not shown) [Example 25] | 3.02 | 
CC(C)=NN(CC1CCCCC1)c1c(-c2c(F)cc(F)cc2F)c(Cl)nc2ncnn12 [Example 26] | 4.5 | 
CC1(NNc2c(-c3c(F)cc(F)cc3F)c(Cl)nc3ncnn23)CCCCC1 [Example 27] | 3.68 | 

SMILES | logP* [2] | other results
CON(C)c1c(-c2c(F)cccc2F)c(Cl)nc2ncnn12 [Example 28] | 2.43 | 
Fc1cc(F)c(-c2c(Cl)nc3ncnn3c2NNCC(F)(F)C(F)F)c(F)c1 [Example 29] | 2.58 | 
CONc1c(-c2c(F)cc(F)cc2F)c(Cl)nc2ncnn12 [Example 31] | 2.12 | 
CONc1c(-c2c(F)cccc2F)c(Cl)nc2ncnn12 [Example 32] | 1.92 | 
OCCNNc1c(-c2c(F)cc(F)cc2F)c(Cl)nc2ncnn12 [Example 33] | 1.68 | 
CC(C)ON(C)c1c(-c2c(F)cccc2F)c(Cl)nc2ncnn12 [Example 34] | 3.01 | 
Fc1cc(F)c(-c2c(Cl)nc3ncnn3c2NNC2CCCCC2)c(F)c1 [Example 35] | 3.28 | 
CCONc1c(-c2c(F)cc(F)cc2F)c(Cl)nc2ncnn12 [Example 40] | 2.33 | 
CCC(C)ONc1c(-c2c(F)cc(F)cc2F)c(Cl)nc2ncnn12 (stereo not shown) [Example 41] | 2.86 | 
C=CCONc1c(-c2c(F)cc(F)cc2F)c(Cl)nc2ncnn12 [Example 42] | 2.48 | 
CC(C)(C)ONc1c(-c2c(F)cc(F)cc2F)c(Cl)nc2ncnn12 [Example 43] | 2.75 | 
CC(C)CNNc1c(-c2c(Cl)c(F)cc(C(F)(F)F)c2Cl)c(Cl)nc2ncnn12 [Example 44] | 3.89 | 
Fc1cccc(F)c1-c1c(Cl)nc2ncnn2c1NOCc1cccc(Cl)c1 [Example 46] | 3.12 | 
Fc1cccc(F)c1-c1c(Cl)nc2ncnn2c1NOCc1ccc(Cl)cc1 [Example 47] | 3.14 | 
CCC(C)ONc1c(-c2c(F)cccc2F)c(Cl)nc2ncnn12 (stereo not shown) [Example 48] | 2.67 | 
C=CCONc1c(-c2c(F)cccc2F)c(Cl)nc2ncnn12 [Example 50] | 2.28 | 
Fc1cccc(F)c1-c1c(Cl)nc2ncnn2c1NOC1CCCCO1 (stereo not shown) [Example 51] | 2.43 | 
Fc1cc(F)c(-c2c(Cl)nc3ncnn3c2NNCC2CCCO2)c(F)c1 (stereo not shown) [Example 52] | 2.44 | 
CC(C)(O)CNNc1c(-c2c(F)cc(F)cc2F)c(Cl)nc2ncnn12 [Example 53] | 2.09 | 
Fc1cc(F)c(-c2c(Cl)nc3ncnn3c2NNCCN2CCOCC2)c(F)c1 [Example 54] | 1.14 | 
Fc1cc(F)c(-c2c(Cl)nc3ncnn3c2NNC2CCCC2)c(F)c1 [Example 55] | 2.98 | 
CC(C)CONc1c(-c2ccccc2F)c(Cl)nc2ncnn12 [Example 56] | 2.79 | 

SMILES | logP* [2] | other results
CCONc1c(-c2ccccc2F)c(Cl)nc2ncnn12 [Example 57] | 2.13 | 
Fc1ccccc1-c1c(Cl)nc2ncnn2c1NOCc1ccc(C(F)(F)F)cc1 [Example 58] | 3.31 | 
Fc1ccccc1-c1c(Cl)nc2ncnn2c1NOCc1ccccc1Cl [Example 59] | 3.06 | 
Fc1ccccc1-c1c(Cl)nc2ncnn2c1NOCc1cccc(Cl)c1 [Example 60] | 3.15 | 
Fc1ccccc1-c1c(Cl)nc2ncnn2c1NOCc1ccc(Cl)cc1 [Example 61] | 3.16 | 
Fc1ccc(CONc2c(-c3ccccc3F)c(Cl)nc3ncnn23)cc1 [Example 62] | 2.82 | 
CCC(C)ONc1c(-c2ccccc2F)c(Cl)nc2ncnn12 (stereo not shown) [Example 63] | 2.69 | 
C=CCONc1c(-c2ccccc2F)c(Cl)nc2ncnn12 [Example 64] | 2.27 | 
CC(C)(C)ONc1c(-c2ccccc2F)c(Cl)nc2ncnn12 [Example 65] | 2.58 | 
Fc1ccccc1-c1c(Cl)nc2ncnn2c1NOC1CCCCO1 (stereo not shown) [Example 66] | 2.46 | 
CONc1c(-c2ccccc2F)c(Cl)nc2ncnn12 [Example 67] | 1.89 | 
CON(C)c1c(-c2ccccc2F)c(Cl)nc2ncnn12 [Example 68] | 2.33 | 
CC(C)CONc1c(-c2c(F)c(F)c(F)c(F)c2F)c(Cl)nc2ncnn12 [Example 69] | 3.42 | 
CCONc1c(-c2c(F)c(F)c(F)c(F)c2F)c(Cl)nc2ncnn12 [Example 70] | 2.73 | 
Fc1c(F)c(F)c(-c2c(Cl)nc3ncnn3c2NOCc2ccc(Cl)cc2)c(F)c1F [Example 71] | 3.62 | 
Fc1ccc(CONc2c(-c3c(F)c(F)c(F)c(F)c3F)c(Cl)nc3ncnn23)cc1 [Example 72] | 3.3 | 
CCC(C)ONc1c(-c2c(F)c(F)c(F)c(F)c2F)c(Cl)nc2ncnn12 (stereo not shown) [Example 73] | 3.33 | 
C=CCONc1c(-c2c(F)c(F)c(F)c(F)c2F)c(Cl)nc2ncnn12 [Example 74] | 2.89 | 
CC(C)(C)ONc1c(-c2c(F)c(F)c(F)c(F)c2F)c(Cl)nc2ncnn12 [Example 75] | 3.24 | 
Fc1c(F)c(F)c(-c2c(Cl)nc3ncnn3c2NOC2CCCCO2)c(F)c1F (stereo not shown) [Example 76] | 3.04 | 
CON(C)c1c(-c2c(F)c(F)c(F)c(F)c2F)c(Cl)nc2ncnn12 [Example 77] | 3.06 | 
CC(C)CCNNc1c(-c2c(F)cc(F)cc2F)c(Cl)nc2ncnn12 [Example 78] | 3.25 | 

SMILES | logP* [2] | other results
CC(C)CONc1c(-c2c(F)cc(F)cc2F)c(Cl)nc2ncnn12 [Example 79] | 3 | 
Fc1cc(F)c(-c2c(Cl)nc3ncnn3c2NOCc2cc(Cl)cc(Cl)c2)c(F)c1 [Example 80] | 3.73 | 
Fc1cc(F)c(-c2c(Cl)nc3ncnn3c2NOCc2ccccc2Cl)c(F)c1 [Example 81] | 3.22 | 
Fc1cc(F)c(-c2c(Cl)nc3ncnn3c2NOCc2cccc(Cl)c2)c(F)c1 [Example 82] | 3.27 | 
Fc1ccc(CONc2c(-c3c(F)cc(F)cc3F)c(Cl)nc3ncnn23)cc1 [Example 83] | 2.99 | 
Fc1cc(F)c(-c2c(Cl)nc3ncnn3c2NOCc2cccc(C(F)(F)F)c2)c(F)c1 [Example 84] | 3.39 | 
CCCCONc1c(-c2c(F)cc(F)cc2F)c(Cl)nc2ncnn12 [Example 85] | 3.01 | 
Fc1cc(F)c(-c2c(Cl)nc3ncnn3c2NOCc2c(Cl)cccc2Cl)c(F)c1 [Example 86] | 3.32 | 
CN(C)Nc1c(-c2ccccc2F)c(Cl)nc2ncnn12 [Example 87] | 2.26 | 
CNN(C)c1c(-c2ccccc2F)c(Cl)nc2ncnn12 [Example 88] | 2.13 | 
CCNNc1c(-c2ccccc2F)c(Cl)nc2ncnn12 [Example 89] | 2.06 | 
CCCCNNc1c(-c2ccccc2F)c(Cl)nc2ncnn12 [Example 90] | 2.77 | 
COC(=O)N(C)Nc1c(-c2ccccc2F)c(Cl)nc2ncnn12 [Example 93] | 1.8 | 
N#CCCNNc1c(-c2ccccc2F)c(Cl)nc2ncnn12 [Example 94] | 1.82 | 
Fc1ccccc1-c1c(Cl)nc2ncnn2c1NOCc1ccccc1 [Example 95] | 2.83 | 
Fc1ccccc1-c1c(Cl)nc2ncnn2c1NOCc1cc(Cl)cc(Cl)c1 [Example 96] | 3.69 | 
Fc1ccccc1-c1c(Cl)nc2ncnn2c1NOCc1ccc(Cl)cc1Cl [Example 97] | 3.6 | 
CC(C)ONc1c(-c2ccccc2F)c(Cl)nc2ncnn12 [Example 98] | 2.42 | 
Fc1ccccc1-c1c(Cl)nc2ncnn2c1NOCc1cccc(C(F)(F)F)c1 [Example 99] | 3.34 | 
